According to patent publication US9682955B2, “Quinazoline derivatives useful as CB-1 inverse agonists” (Janssen Pharmaceutica NV, priority 2014, dated 2017):

Tests used:
[1] = target: Human CB1R (Cannabanoid receptor 1) (Homo sapiens (Human), UniProt P21554); experiment: CB-1 in vitro cAMP assay (HTRF); assay type: cell-based; conditions: mean where tested more than once
Excerpt: (§1) CB1 and CB2 receptors are Gi-coupled GPCR. Activation of CB1 and CB2 receptors results in a decrease in cAMP production. An inverse agonist of the CB1 or CB2 receptor results in the opposite effect, an increase of cAMP production. The principle of this assay is based on HTRF® technology (Homogeneous Time-Resolved Fluorescence). The method is a competitive immunoassay between native cAMP produced by cells and the cAMP labeled with the fluorophore d2. The tracer binding is quantified by a Mab anti-cAMP labeled with Eu3+TBP-NHS Cryptate (supplied as part of the assay kit). The specific signal (i.e. energy transfer) is inversely proportional to the concentration of cAMP in the standard or sample.
(§2) Human CB1R (Cannabanoid receptor 1) was stably transfected in HEK-293 cells (DiscoveRx, cat: 93-0200C1). Human CB2R (Cannabanoid receptor 2) was stably transfected in HEK-293 cells (DiscoveRx, cat: 93-0201C1). Cell cultures were maintained in media: DMEM (Invitrogen Cat#12430-054) supplemented with 10% HI FBS (Invitrogen Cat#16140-071), 1% L-glutamine (Invitrogen Cat#25030-081), 0.2 mg/ml Hygromycin B (Invitrogen Cat#10687-010), 600 μg/mL G418 (Invitrogen Cat#10131-035), and 1× Penn/Strep (Invitrogen 15140-122). After cell expansion, aliquots were cryo-stored in media containing 5% DMSO (Pierce Cat#20684).
(§3) One day prior to experiments media was warmed to 37° C. and the cryo-stored cells were thawed in a 37° C. water bath. The cells were then added to media (10× volume) and the mixture was centrifugated at 1000 RPM for 5 min. The supernate was removed and the cells were re-suspended in media. A sample of the cell suspension was evaluated on a Cedex XS automated cell counter (Innovatis Systems) to determine viable cells/ml. Additional media was added to the cells to achieve a final cell density of 4E5 cells/mL. The cells were then plated into 384 well PDL white solid bottom plates (Greiner, Cat#781945) at 20 μL per well using a Multidrop (Thermo Scientific). Cells were removed from Row P (location of cAMP standards). Two columns of cells were plated into a clear bottom 384 well PDL coated plate (Greiner, Cat#781944) to view confluence the day of the assay. The cell plates were lidded and stored for 15 minutes in a hood, then transferred to an incubator (37° C., 5% CO2, 95% humidity) overnight.
(§4) DMSO was added to all wells of 384 well V bottom polystyrene plate (Greiner, Cat#781280) except to columns 1 and 13, rows O and P and wells M13-M23 and N13-N23. Test compounds (60 μL, 10 mM) were added to Column 1 and 13 (A1 through N1 and A13 through L13). Test compounds were serially diluted 1/3 by transferring and mixing 20 μl sample with 40 μL DMSO.
(§5) DMSO (40 μL) was added to wells of 384 well V bottom polystyrene plate: O2 through O11, M14 through M23, N14 through N23, and O14 through O23. AM630 (also known as [6-iodo-2-methyl-1-[2-(4-morpholinyl)ethyl]-1H-indol-3-yl](4-methoxyphenyl)-methanone, Cayman Chemical, Cat#10006974) (60 μL, 10 mM) was added to O1; and 1-(2,4-dichlorophenyl)-7-[(4-fluorophenyl)methylene]-4,5,6,7-tetrahydro-N-1-piperidinyl-1H-indazole-3-carboxamide (60 μL, 10 mM) was added to N13. The control was serially diluted 1/3 by transferring and mixing 20 μl sample with 40 μL DMSO. This process resulted 11 doses per control, 10 mM to […].
(§6) Cells plated the day prior to the assay in clear bottom plates were viewed on an inverse microscope to ensure confluency in the range of 60-75%. […]

[2] = target: Human CB2R (Cannabanoid receptor 2) (Homo sapiens (Human), UniProt P34972); experiment: CB-2 in vitro cAMP assay (HTRF); assay type: cell-based; conditions: mean where tested more than once
Human CB2R (Cannabanoid receptor 2), sequence (P34972 whole entry): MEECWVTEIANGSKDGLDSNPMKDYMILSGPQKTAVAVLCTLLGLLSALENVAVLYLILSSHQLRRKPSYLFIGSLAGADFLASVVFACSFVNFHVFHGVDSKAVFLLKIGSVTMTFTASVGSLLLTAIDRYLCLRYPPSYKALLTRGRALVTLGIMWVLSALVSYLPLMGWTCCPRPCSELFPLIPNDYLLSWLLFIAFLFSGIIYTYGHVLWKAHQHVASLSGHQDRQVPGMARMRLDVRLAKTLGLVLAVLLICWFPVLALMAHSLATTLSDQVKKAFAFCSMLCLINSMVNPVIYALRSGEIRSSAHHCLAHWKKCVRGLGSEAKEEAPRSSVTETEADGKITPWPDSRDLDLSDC
Excerpt: as §1, §2, §3, §4, §5, §6

Human CB1R (Cannabanoid receptor 1), sequence (P21554 whole entry): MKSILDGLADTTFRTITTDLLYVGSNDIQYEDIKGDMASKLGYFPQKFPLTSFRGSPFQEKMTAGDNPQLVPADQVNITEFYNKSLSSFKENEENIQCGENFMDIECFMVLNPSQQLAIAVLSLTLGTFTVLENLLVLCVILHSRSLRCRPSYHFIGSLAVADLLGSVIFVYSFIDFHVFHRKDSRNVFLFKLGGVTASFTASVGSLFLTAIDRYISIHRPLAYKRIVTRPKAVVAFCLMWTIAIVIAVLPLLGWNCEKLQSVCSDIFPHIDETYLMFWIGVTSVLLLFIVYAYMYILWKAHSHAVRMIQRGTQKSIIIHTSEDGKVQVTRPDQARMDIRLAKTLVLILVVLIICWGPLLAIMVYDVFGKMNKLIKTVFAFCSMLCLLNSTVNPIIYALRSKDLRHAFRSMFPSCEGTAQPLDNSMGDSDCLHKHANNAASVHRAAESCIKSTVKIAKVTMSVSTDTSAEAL

SMILES	EC50 [1]	EC50 [2]
O=S(=O)(N1CCC(Nc2nc(Cl)nc3ccc(C(c4ccc(Cl)cc4)c4ccc(Cl)cc4)cc23)CC1)C(F)(F)F [Compound 200]	9 nM	6500 nM
O=C(O)COc1ccc(S(=O)(=O)N2CCC(Nc3ncnc4ccc(C(c5ccc(Cl)cc5)c5ccc(Cl)cc5)cc34)CC2)cc1 [Compound #3, 2-(4-((4-((6-(bis(4-chlorophenyl)methyl)quinazolin-4-yl)amino)piperidin-1-yl)sulfonyl)phenoxy)acetic acid]	98 nM	3430 nM
O=S(=O)(NC1CCN(c2ncnc3ccc(C(c4ccc(Cl)cc4)c4ccc(Cl)cc4)cc23)C1)C(F)(F)F (stereo not shown) [Compound #9, N-(1-(6-(bis(4-chlorophenyl)methyl)quinazolin-4-yl)pyrrolidin-3-yl)trifluoromethanesulfonamide]	191 nM	150 nM
Clc1ccc(C(c2ccc(Cl)cc2)c2ccc3ncnc(NC4CCN(CCc5ccccc5)CC4)c3c2)cc1 [Compound #11, 6-(bis(4-chlorophenyl)methyl)-N-(1-phenethylpiperidin-4-yl)quinazolin-4-amine]	124 nM	> 10000 nM
O=C(O)c1cccc(CCN2CCC(Nc3ncnc4ccc(C(c5ccc(Cl)cc5)c5ccc(Cl)cc5)cc34)CC2)c1 [Compound #13, 3-(2-(4-(6-(bis(4-chlorophenyl)methyl)quinazolin-4-ylamino)piperidin-1-yl)ethyl)benzoic acid]	1240 nM	3050 nM
O=C(O)c1ccc(C(c2ccc(Cl)cc2)c2ccc3ncnc(NC4CCN(S(=O)(=O)C(F)(F)F)CC4)c3c2)cc1 (stereo not shown) [Compound #16, 4-((4-chlorophenyl)(4-((1-((trifluoromethyl)sulfonyl)piperidin-4-yl)amino)quinazolin-6-yl)methyl)benzoic acid]	343 nM	> 10000 nM

Further compounds by falling EC50 [1], results first:

EC50 [1]	EC50 [2]	SMILES
1120 nM	8700 nM	O=C(O)c1ccc(CN2CCC(Nc3ncnc4ccc(C(c5ccc(Cl)cc5)c5ccc(Cl)cc5)cc34)C2)cc1 (stereo not shown) [Compound #14, 4-((3-((6-(bis(4-chlorophenyl)methyl)quinazolin-4-yl)amino)pyrrolidin-1-yl)methyl)benzoic acid]
894 nM	998 nM	O=C(O)c1ccc(CCN2CCC(Nc3ncnc4ccc(C(c5ccc(Cl)cc5)c5ccc(Cl)cc5)cc34)CC2)cc1 [Compound #10, 4-(2-(4-((6-(bis(4-chlorophenyl)methyl)quinazolin-4-yl)amino)piperidin-1-yl)ethyl)benzoic acid]
325 nM	1060 nM	O=C(O)c1cccc(CCNc2ncnc3ccc(C(c4ccc(Cl)cc4)c4ccc(Cl)cc4)cc23)c1 [Compound #2, 3-(2-((6-(bis(4-chlorophenyl)methyl)quinazolin-4-yl)amino)ethyl)benzoic acid]
35 nM	455 nM	O=S1(=O)CCN(CCNc2ncnc3ccc(C(c4ccc(Cl)cc4)c4ccc(Cl)cc4)cc23)CC1 [Compound #6, 4-(2-((6-(bis(4-chlorophenyl)methyl)quinazolin-4-yl)amino)ethyl)thiomorpholine 1,1-dioxide]
34 nM	8200 nM	C[C@@H](Nc1ncnc2ccc(C(c3ccc(Cl)cc3)c3ccc(Cl)cc3)cc12)c1cccc(C(F)(F)F)c1 (single isomer, unassigned) [compound 115]
10 nM	4700 nM	C[C@H](Nc1ncnc2ccc(C(c3ccc(Cl)cc3)c3ccc(Cl)cc3)cc12)c1cccc(C(F)(F)F)c1 (single isomer, unassigned) [Compound #112]
9 nM	170 nM	CCOC(=O)COc1ccc(S(=O)(=O)N2CCC(Nc3ncnc4ccc(C(c5ccc(Cl)cc5)c5ccc(Cl)cc5)cc34)CC2)cc1 [Compound #4, Ethyl 2-(4-((4-((6-(bis(4-chlorophenyl)methyl)quinazolin-4-yl)amino)piperidin-1-yl)sulfonyl)phenoxy)acetate]
8 nM	248 nM	O=S(=O)(c1ccc(O)cc1)N1CCC(Nc2ncnc3ccc(C(c4ccc(Cl)cc4)c4ccc(Cl)cc4)cc23)CC1 [Compound #8]
